pIC50: −log10 of the molar value.

The text below walks through data of US9856216B2, “Compounds as TNIK, IKKε and TBK1 inhibitors and pharmaceutical composition comprising same” (GREEN CROSS CORPORATION, priority 2015, dated 2018).

The target of one assay is T1, TNIK (Homo sapiens, UniProt Q9UKE5).
T1 construct: purchased Promega V4158
T1 sequence (Q9UKE5 1-367 limits assumed): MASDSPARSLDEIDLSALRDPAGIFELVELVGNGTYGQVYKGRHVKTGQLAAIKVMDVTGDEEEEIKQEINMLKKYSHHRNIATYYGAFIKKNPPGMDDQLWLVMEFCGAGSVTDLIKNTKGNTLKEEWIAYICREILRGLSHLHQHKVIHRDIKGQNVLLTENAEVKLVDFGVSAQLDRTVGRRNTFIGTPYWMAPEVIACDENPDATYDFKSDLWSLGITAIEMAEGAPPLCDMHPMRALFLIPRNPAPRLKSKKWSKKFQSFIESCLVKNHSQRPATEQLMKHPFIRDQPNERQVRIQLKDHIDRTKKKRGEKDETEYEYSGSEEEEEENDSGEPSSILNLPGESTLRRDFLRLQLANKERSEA
Nature of the assay: ADP-Glo Kinase Assay, inhibition activity on TNIK. Format: biochemical.
Conditions: not given
The procedure: The inhibition activities on TNIK, IKKε and TBK1 were measured by a luminometer, TNIK/IKKε/TBK1 Kinase Enzyme System (Promega, Ca# V4158; Invitrogen, PR8031B, Promega, Ca# V3991) and ADP-Glo Kinase Assay using ADP-Glo™ Kinase Analysis Kit (Promega, Ca# V9101) and a kinase reaction buffer [40 mM Tris(pH 7.5), 20 mM MgCl2, 0.1 mg/mL BSA] in accordance with the manufacturer's protocol.
For orientation: In ADP-Glo the light output rises with the ADP produced.
As to `O=C(Nc1ccc(-c2cccc(O)c2O)c2c1C(=O)NC2)c1ccc(F)cc1` [Example 189, N-(7-(2,3-dihydroxyphenyl)-3-oxoisoindolin-4-yl)-4-fluorobenzamide], the “TNIK (μM)” value is on record as “Insoluble”.

With `Cc1nc2cccc(-c3ccc(NC(=O)c4ccc(F)cc4)c4c3CNC4=O)c2o1` [Example 194, 4-Fluoro-N-(7-(2-methylbenzo[d]oxazol-7-yl)-3-oxoisoindolin-4-yl)benzamide], the “TNIK (μM)” value is on record as “Insoluble”.

For `O=C(Nc1ccc(-c2ccc(F)nc2)c2c1C(=O)NC2)c1ccccc1` [Example 199, N-(7-(6-fluoropyridin-3-yl)-3-oxoisoindolin-4-yl)benzamide], the “TNIK (μM)” value is on record as “Insoluble”.

Take `COc1ccc(-c2ccc(NC(=O)c3ccccc3)c3c2CNC3=O)cn1` [Example 200, N-(7-(6-methoxypyridin-3-yl)-3-oxoisoindolin-4-yl)benzamide]: the “TNIK (μM)” value is recorded as “Insoluble”.

The same assay, now with this note: read-out: TNIK.
Turning to `O=C(Nc1ccc(-c2ccccc2F)c2c1C(=O)NC2)c1ccccc1` [Example 149, N-(7-(2-fluorophenyl)-3-oxoisoindolin-4-yl)benzamide], the pIC50 is 5.42.

As for `O=C(Nc1ccc(-c2ccoc2)c2c1C(=O)NC2)c1ccccc1` [Example 150, N-(7-(furan-3-yl)-3-oxoisoindolin-4-yl)benzamide], the pIC50 was 5.57.

For `O=C(Nc1ccc(-c2cccc(F)c2)c2c1C(=O)NC2)c1ccccc1` [Example 151, N-(7-(3-fluorophenyl)-3-oxoisoindolin-4-yl)benzamide], the pIC50 is 5.82.

`O=C(Nc1ccc(-c2cccnc2)c2c1C(=O)NC2)c1ccccc1` [Example 152, N-(3-oxo-7-(pyridin-3-yl)isoindolin-4-yl)benzamide]: the pIC50 is less than 4.70.

As to `O=C(Nc1ccc(-c2cncnc2)c2c1C(=O)NC2)c1ccccc1` [Example 154, N-(3-oxo-7-(pyrimidin-5-yl)isoindolin-4-yl)benzamide], the pIC50 was less than 4.70.

`O=C(Nc1ccc(-c2ccccc2)c2c1C(=O)NC2)c1sccc1Cl` [Example 155, 3-Chloro-N-(3-oxo-7-phenylisoindolin-4-yl)thiophene-2-carboxamide]: the pIC50 is 5.64.

For `O=C(Nc1ccc(-c2ccccc2)c2c1C(=O)NC2)c1ccc(Br)s1` [Example 156, 5-Bromo-N-(3-oxo-7-phenylisoindolin-4-yl)thiophene-2-carboxamide], the pIC50 was 5.54.

With `O=C(Nc1ccc(-c2ccccc2)c2c1C(=O)NC2)c1sccc1Br` [Example 157, 3-Bromo-N-(3-oxo-7-phenylisoindolin-4-yl)thiophene-2-carboxamide], the pIC50 was 5.47.

Take `O=C(Nc1ccc(-c2ccco2)c2c1C(=O)NC2)c1ccc(F)cc1` [Example 158, 4-Fluoro-N-(7-(furan-2-yl)-3-oxoisoindolin-4-yl)benzamide]: the pIC50 was 5.90.

As to `CCCCC(=O)Nc1ccc(-c2ccccc2)c2c1C(=O)NC2` [Example 159, N-(3-oxo-7-phenylisoindolin-4-yl)pentanamide], the pIC50 was 5.74.

Take `CC(=O)Nc1ccc(-c2ccccc2)c2c1C(=O)NC2` [Example 160, N-(3-oxo-7-phenylisoindolin-4-yl)acetamide]: the pIC50 is 5.96.

For the molecule `CS(=O)(=O)c1ccc(-c2ccc(NC(=O)c3ccccc3)c3c2CNC3=O)cc1` [Example 167, N-(7-(4-(methylsulfonyl)phenyl)-3-oxoisoindolin-4-yl) benzamide], the pIC50 is 5.01.

Consider `CS(=O)(=O)c1cccc(-c2ccc(NC(=O)c3ccccc3)c3c2CNC3=O)c1` [Example 168, N-(7-(3-(methylsulfonyl)phenyl)-3-oxoisoindolin-4-yl) benzamide], for which the pIC50 was less than 4.70.

As for `CC(=O)Nc1cccc(-c2ccc(NC(=O)c3ccccc3)c3c2CNC3=O)c1` [Example 169, N-(7-(3-acetamidophenyl)-3-oxoisoindolin-4-yl)benzamide], the pIC50 is 5.38.

Regarding `O=C(Nc1ccc(-c2ccccc2)c2c1C(=O)NC2)c1ccc(Cl)s1` [Example 170, 5-Chloro-N-(3-oxo-7-phenylisoindolin-4-yl)thiophene-2-carboxamide], the pIC50 was 5.45.

With `COc1cccc(-c2ccc(NC(=O)c3ccccc3)c3c2CNC3=O)c1OC` [Example 171, N-(7-(2,3-dimethoxyphenyl)-3-oxoisoindolin-4-yl)benzamide], the pIC50 was 7.24.

For the molecule `COc1cc(OC)cc(-c2ccc(NC(=O)c3ccccc3)c3c2CNC3=O)c1` [Example 172, N-(7-(3,5-dimethoxyphenyl)-3-oxoisoindolin-4-yl)benzamide], the pIC50 was less than 4.70.

As to `O=C(Nc1ccc(C2CC2)c2c1C(=O)NC2)c1ccccc1` [Example 173, N-(7-cyclopropyl-3-oxoisoindolin-4-yl)benzamide], the pIC50 was 6.12.

On to `O=C(Nc1ccc(-c2ccccc2Cl)c2c1C(=O)NC2)c1ccccc1` [Example 174, N-(7-(2-chlorophenyl)-3-oxoisoindolin-4-yl)benzamide], for which the pIC50 was less than 4.70.

`COc1ccc(-c2ccc(NC(=O)c3ccccc3)c3c2CNC3=O)c(OC)c1` [Example 175, N-(7-(2,4-dimethoxyphenyl)-3-oxoisoindolin-4-yl)benzamide]: the pIC50 was 5.52.

Consider `COc1ccc(-c2ccc(NC(=O)c3ccccc3)c3c2CNC3=O)cc1OC` [Example 176, N-(7-(3,4-dimethoxyphenyl)-3-oxoisoindolin-4-yl)benzamide], for which the pIC50 is less than 4.70.

With `CCOc1cccc(-c2ccc(NC(=O)c3ccccc3)c3c2CNC3=O)c1` [Example 177, N-(7-(3-ethoxyphenyl)-3-oxoisoindolin-4-yl)benzamide], the pIC50 is 5.09.

As for `COc1ccc(OC)c(-c2ccc(NC(=O)c3ccccc3)c3c2CNC3=O)c1` [Example 178, N-(7-(2,5-dimethoxyphenyl)-3-oxoisoindolin-4-yl)benzamide], the pIC50 is less than 4.70.

Regarding `O=C(Nc1ccc(-c2ccc(Cl)cc2)c2c1C(=O)NC2)c1ccccc1` [Example 179, N-(7-(4-chlorophenyl)-3-oxoisoindolin-4-yl)benzamide], the pIC50 is less than 4.70.

Take `O=C(Nc1ccc(-c2cccc(Cl)c2)c2c1C(=O)NC2)c1ccccc1` [Example 180, N-(7-(3-chlorophenyl)-3-oxoisoindolin-4-yl)benzamide]: the pIC50 was 4.86.

For `CCOc1ccc(-c2ccc(NC(=O)c3ccccc3)c3c2CNC3=O)cc1` [Example 181, N-(7-(4-ethoxyphenyl)-3-oxoisoindolin-4-yl)benzamide], the pIC50 is less than 4.70.

For `CCOc1ccccc1-c1ccc(NC(=O)c2ccccc2)c2c1CNC2=O` [Example 182, N-(7-(2-ethoxyphenyl)-3-oxoisoindolin-4-yl)benzamide], the pIC50 was 5.55.

On to `N#Cc1ccccc1-c1ccc(NC(=O)c2ccccc2)c2c1CNC2=O` [Example 183, N-(7-(2-cyanophenyl)-3-oxoisoindolin-4-yl)benzamide], for which the pIC50 was 5.77.

As to `CCCCOc1ccc(-c2ccc(NC(=O)c3ccccc3)c3c2CNC3=O)cc1` [Example 184, N-(7-(4-butoxyphenyl)-3-oxoisoindolin-4-yl)benzamide], the pIC50 was less than 4.70.

`CN(C)c1ccccc1-c1ccc(NC(=O)c2ccccc2)c2c1CNC2=O` [Example 185, N-(7-(2-(dimethylamino)phenyl)-3-oxoisoindolin-4-yl) benzamide]: the pIC50 was 5.55.

On to `O=C(Nc1ccc(-c2ccc(OC(F)(F)F)cc2)c2c1C(=O)NC2)c1ccccc1` [Example 186, N-(3-oxo-7-(4-(trifluoromethoxy)phenyl)isoindolin-4-yl) benzamide], for which the pIC50 was less than 4.70.

For `COc1cccc(OC)c1-c1ccc(NC(=O)c2ccccc2)c2c1CNC2=O` [Example 187, N-(7-(2,6-dimethoxyphenyl)-3-oxoisoindolin-4-yl)benzamide], the pIC50 is 5.66.

As for `CCCc1ccc(-c2ccc(NC(=O)c3ccccc3)c3c2CNC3=O)cc1` [Example 188, N-(3-oxo-7-(4-propylphenyl)isoindolin-4-yl)benzamide], the pIC50 was less than 4.70.

Regarding `COc1cccc(-c2ccc(NC(=O)c3ccc(F)cc3)c3c2CNC3=O)c1O` [Example 190, 4-Fluoro-N-(7-(2-hydroxy-3-methoxyphenyl)-3-oxoisoindolin-4-yl)benzamide], the pIC50 is 6.28.

As to `O=C(Nc1ccc(-c2cccs2)c2c1C(=O)NC2)c1ccc(F)cc1` [Example 191, 4-Fluoro-N-(3-oxo-7-(thiophen-2-yl)isoindolin-4-yl)benzamide], the pIC50 was 4.87.

With `Cc1ccc(C(=O)Nc2ccc(-c3ccccc3)c3c2C(=O)NC3)o1` [Example 192, 5-Methyl-N-(3-oxo-7-phenylisoindolin-4-yl)furan-2-carboxamide], the pIC50 was 6.14.

Take `O=C(Nc1ccc(-c2cccc3ncoc23)c2c1C(=O)NC2)c1ccc(F)cc1` [Example 193, N-(7-(benzo[d]oxazol-7-yl)-3-oxoisoindolin-4-yl)-4-fluorobenzamide]: the pIC50 is 5.84.

In the case of `O=C(Nc1ccc(-c2ccc(CN3CCCC3)s2)c2c1C(=O)NC2)c1ccccc1` [Example 195, N-(3-oxo-7-(5-(pyrrolidin-1-ylmethyl)thiophen-2-yl)isoindolin-4-yl)benzamide], the pIC50 was less than 4.70.

Consider `O=C(Nc1ccc(-c2ccc(CN3CCCCC3)s2)c2c1C(=O)NC2)c1ccccc1` [Example 196, N-(3-oxo-7-(5-(piperidin-1-ylmethyl)thiophen-2-yl)isoindolin-4-yl)benzamide], for which the pIC50 was 4.75.

For `O=C(Nc1ccc(-c2ccc(CN3CCOCC3)s2)c2c1C(=O)NC2)c1ccccc1` [Example 197, N-(7-(5-(morpholinomethyl)thiophen-2-yl)-3-oxoisoindolin-4-yl)benzamide], the pIC50 was less than 4.70.

With `CC(C)(C)OC(=O)N1CCN(Cc2ccc(-c3ccc(NC(=O)c4ccccc4)c4c3CNC4=O)s2)CC1` [Example 198, tert-Butyl 4-((5-(7-benzamido-1-oxoisoindolin-4-yl)thiophen-2-yl)methyl)piperazine-1-carboxylate], the pIC50 was less than 4.70.
